Measurements from patent publication US7772263B2, “Compounds for the treatment of inflammatory disorders” (Schering Corporation, priority 2006, dated 2010).

Molecular target: T1, purified catalytic domain of recombinant human TACE (rhTACEc) (Homo sapiens, UniProt P78536, N452Q/S266A)
T1 construct: rhTACEc, Residue 215 to 477 with two mutation (S266A and N4520) and a 6×His tail; 6xHis (C); made in house; host or cells: baculovirus/Hi5 insect cells
Experiment: TACE kinetic assay, cleavage of internally quenched fluorescent peptide substrate SPDL-3
Type: biochemical
Conditions: TACE; class letters A-D; read-out: Ki Rating

T1 sequence (P78536 215-477 S266A/N452Q limits assumed): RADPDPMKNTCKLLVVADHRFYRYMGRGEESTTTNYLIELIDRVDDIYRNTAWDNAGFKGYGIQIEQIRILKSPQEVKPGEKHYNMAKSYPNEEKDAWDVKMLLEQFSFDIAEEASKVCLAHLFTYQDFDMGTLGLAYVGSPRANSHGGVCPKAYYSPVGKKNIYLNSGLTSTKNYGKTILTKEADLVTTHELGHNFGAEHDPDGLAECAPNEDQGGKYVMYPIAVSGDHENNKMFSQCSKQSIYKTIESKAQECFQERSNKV

Ki [nM] | Structure (SMILES)
5 to 25 | COc1ccc2c(c1)C(=O)N(CC1(C#Cc3cccnc3)NC(=O)NC1=O)CC2 (centres unmarked) [Compound 1558]
< 5 | COc1ccc2c(c1)C(=O)N(C[C@@]1(C#Cc3ccc(C)nc3N)NC(=O)NC1=O)C2 [Compound 1559]
< 5 | COc1ccc2c(c1)C(=O)N(C[C@@]1(C#Cc3ccc4oc(=O)[nH]c4c3)NC(=O)NC1=O)C2 [Compound 1560]
< 5 | COc1ccc2c(c1)C(=O)N(C[C@@]1(C#Cc3cncnc3N)NC(=O)NC1=O)C2 [Compound 1561]
< 5 | COc1ccc2c(c1)C(=O)N(C[C@@]1(C#Cc3ccc(C4(CN)NC(=O)NC4=O)cc3)NC(=O)NC1=O)C2 (some centres unmarked) [Compound 1562]
< 5 | COc1ccc2c(c1)C(=O)N(C[C@@]1(C#Cc3ccc(F)nc3)NC(=O)NC1=O)C2 [Compound 1563]
5 to 25 | COc1ccc2c(c1Br)C(=O)N(CC1(C#Cc3cccnc3)NC(=O)NC1=O)C2 (centres unmarked) [Compound 1564]
< 5 | CON=C(C)c1ccc(C#C[C@]2(CN3Cc4ccc(OC)cc4C3=O)NC(=O)NC2=O)cc1 [Compound 1565]
< 5 | COc1ccc2c(c1)C(=O)N(C[C@@]1(C#Cc3ccc4[nH]c(=O)[nH]c(=O)c4c3)NC(=O)NC1=O)C2 [Compound 1566]
< 5 | COc1ccc2c(c1)C(=O)N(C[C@@]1(C#Cc3cnc(O)nc3N)NC(=O)NC1=O)C2 [Compound 1567]
< 5 | COc1ccc2c(c1)C(=O)N(C[C@@]1(C#Cc3cnc4c(c3)CCC(=O)N4)NC(=O)NC1=O)C2 [Compound 1568]
< 5 | COc1ccc2c(c1)C(=O)N(C[C@@]1(C#Cc3cc4ccccc4[nH]c3=O)NC(=O)NC1=O)C2 [Compound 1569]
< 5 | COc1ccc2c(c1)C(=O)N(C[C@@]1(C#Cc3ccc(C(=O)NS(=O)(=O)C4CC4)cc3)NC(=O)NC1=O)C2 [Compound 1570]
< 5 | COc1ccc2c(c1)C(=O)N(C[C@@]1(C#Cc3cnc(Cl)c(O)c3)NC(=O)NC1=O)C2 [Compound 1571]
< 5 | COc1ccc2c(c1)C(=O)N(C[C@@]1(C#Cc3cnc(N4CCSCC4)nc3N)NC(=O)NC1=O)C2 [Compound 1572]
< 5 | COc1ccc2c(c1)C(=O)N(C[C@@]1(C#Cc3cnc(Cl)nc3N)NC(=O)NC1=O)C2 [Compound 1573]
< 5 | COc1ccc2c(c1)C(=O)N(C[C@@]1(C#Cc3ccc(OC4SC(=O)NC4=O)cc3)NC(=O)NC1=O)C2 (some centres unmarked) [Compound 1574]
< 5 | COc1ccc2c(c1)C(=O)N(C[C@@]1(C#Cc3ccc(C(C)=NO)nc3)NC(=O)NC1=O)C2 [Compound 1575]
< 5 | COc1ccc2c(c1)C(=O)N(C[C@@]1(C#Cc3ccc4c(c3)CCC43NC(=O)NC3=O)NC(=O)NC1=O)C2 (some centres unmarked) [Compound 1576]
< 5 | COc1ccc2c(c1)C(=O)N(C[C@@]1(C#Cc3ccc(C4(C5CC5)NC(=O)NC4=O)cc3)NC(=O)NC1=O)C2 (some centres unmarked) [Compound 1577]
< 5 | COc1ccc2c(c1)C(=O)N(C[C@@]1(C#Cc3ccc(C)[nH]c3=O)NC(=O)NC1=O)C2 [Compound 1578]
< 5 | COc1ccc2c(c1)C(=O)N(C[C@@]1(C#Cc3cnccc3OC)NC(=O)NC1=O)C2 [Compound 1579]
< 5 | COc1ccc2c(c1)C(=O)N(C[C@@]1(C#Cc3cccc(C4(C)NC(=O)NC4=O)c3)NC(=O)NC1=O)C2 (some centres unmarked) [Compound 1580]
